{"source": "ChEMBL document CHEMBL3507680", "about": "“University of Dundee, Gates Library screen for HepG2 cell viability”", "key": {"[1]": {"assay": "Human HepG2 cell viability assay in 384 well format", "assay_type": "toxicity, cell-based", "parameters": "dose 125 nL, time 70.5 hour; cytotoxicity at 70.5 h: concentration not given beside the values", "conditions": "HepG2 cells, read-out: Inhibition"}, "[2]": {"assay": "Human HepG2 cell viability dose-response assay", "assay_type": "toxicity, cell-based"}}, "note": "Where “and” joins values, the source holds several entries; their conditions need not be identical. Identical values can stand only once."}
{"smiles": "COCCn1c2c(ccc1=O)CC(NCc1cnn(C)c1)CC2", "note": "(configuration not stated)", "values": [{"measurement": "cytotoxicity at 70.5 h", "setting": "[1]", "value": 101, "unit": "%"}, {"measurement": "BOTTOM", "setting": "[2]", "value": 0}, {"measurement": "HILLSLOPE", "setting": "[2]", "value": 0}, {"measurement": "TOP", "setting": "[2]", "value": 0}, {"measurement": "pXC50", "setting": "[2]", "value": "< 4.53"}]}
{"smiles": "COc1ccc(C2CCCN2c2nnc(C)s2)c(OC)c1", "note": "(configuration not stated)", "values": [{"measurement": "cytotoxicity at 70.5 h", "setting": "[1]", "value": 64.4, "unit": "%"}, {"measurement": "BOTTOM", "setting": "[2]", "value": 0}, {"measurement": "HILLSLOPE", "setting": "[2]", "value": 0}, {"measurement": "TOP", "setting": "[2]", "value": 0}, {"measurement": "pXC50", "setting": "[2]", "value": "< 4.53"}]}
{"smiles": "Cl.Clc1cccc(N[C@H]2CCCN[C@H]2Cc2ccccc2)c1", "values": [{"measurement": "cytotoxicity at 70.5 h", "setting": "[1]", "value": 104, "unit": "%"}, {"measurement": "BOTTOM", "setting": "[2]", "value": "3.022 and 5.09"}, {"measurement": "HILLSLOPE", "setting": "[2]", "value": "10.78 and 7.141"}, {"measurement": "TOP", "setting": "[2]", "value": "102.1 and 102.6"}, {"measurement": "pXC50", "setting": "[2]", "value": "5.327 and 5.334"}]}
{"smiles": "COc1cc(OC)c(C2Nc3cc(Cl)ccc3C3=NCCN32)cc1OC", "note": "(configuration not stated)", "values": [{"measurement": "cytotoxicity at 70.5 h", "setting": "[1]", "value": 73.2, "unit": "%"}, {"measurement": "HILLSLOPE", "setting": "[2]", "value": "0.8757 and 0.9571"}, {"measurement": "TOP", "setting": "[2]", "value": "114.1 and 108.1"}, {"measurement": "pXC50", "setting": "[2]", "value": "4.986 and 5.042"}]}
{"smiles": "COCCN1CCN(Cc2cccc(C(N)=O)c2)CC1C", "note": "(configuration not stated)", "values": [{"measurement": "cytotoxicity at 70.5 h", "setting": "[1]", "value": 71.2, "unit": "%"}, {"measurement": "BOTTOM", "setting": "[2]", "value": 0}, {"measurement": "HILLSLOPE", "setting": "[2]", "value": 0}, {"measurement": "TOP", "setting": "[2]", "value": 0}, {"measurement": "pXC50", "setting": "[2]", "value": "< 4.53"}]}
{"smiles": "CCC(=O)Nc1ccc2c(c1)CN(C(=O)c1ccco1)CC2", "values": [{"measurement": "cytotoxicity at 70.5 h", "setting": "[1]", "value": 66.1, "unit": "%"}, {"measurement": "BOTTOM", "setting": "[2]", "value": 0}, {"measurement": "HILLSLOPE", "setting": "[2]", "value": 0}, {"measurement": "TOP", "setting": "[2]", "value": 0}, {"measurement": "pXC50", "setting": "[2]", "value": "< 4.53"}]}
{"smiles": "Cc1nc(CN2CCCC(N(C)Cc3cnn(C)c3)C2)no1", "note": "(configuration not stated)", "values": [{"measurement": "cytotoxicity at 70.5 h", "setting": "[1]", "value": 89.5, "unit": "%"}, {"measurement": "BOTTOM", "setting": "[2]", "value": 0}, {"measurement": "HILLSLOPE", "setting": "[2]", "value": 0}, {"measurement": "TOP", "setting": "[2]", "value": 0}, {"measurement": "pXC50", "setting": "[2]", "value": "< 4.53"}]}
{"smiles": "CCc1[nH]c2c(CNc3nc(C)cc(NC)n3)cc(C)cc2c1C", "values": [{"measurement": "cytotoxicity at 70.5 h", "setting": "[1]", "value": 99.9, "unit": "%"}, {"measurement": "BOTTOM", "setting": "[2]", "value": "-3.977 and -5.003"}, {"measurement": "HILLSLOPE", "setting": "[2]", "value": "3.393 and 3.303"}, {"measurement": "TOP", "setting": "[2]", "value": "104.5 and 105"}, {"measurement": "pXC50", "setting": "[2]", "value": "5.219 and 5.191"}]}
{"smiles": "CCCNc1cc(-c2c[nH]nc2C2CCN(C(=O)C3CCC3)C2)ccn1", "note": "(configuration not stated)", "values": [{"measurement": "cytotoxicity at 70.5 h", "setting": "[1]", "value": 96.6, "unit": "%"}, {"measurement": "HILLSLOPE", "setting": "[2]", "value": "3.782 and 3.402"}, {"measurement": "TOP", "setting": "[2]", "value": "97.22 and 96.9"}, {"measurement": "pXC50", "setting": "[2]", "value": "6.441 and 6.523"}]}
{"smiles": "CN1CCC(c2n[nH]c3ncccc23)C1.O=CO", "note": "(configuration not stated)", "values": [{"measurement": "cytotoxicity at 70.5 h", "setting": "[1]", "value": 81.6, "unit": "%"}, {"measurement": "HILLSLOPE", "setting": "[2]", "value": "2.128 and 2.318"}, {"measurement": "TOP", "setting": "[2]", "value": 100}, {"measurement": "pXC50", "setting": "[2]", "value": "4.946 and 4.92"}]}
{"smiles": "Cc1cc(C(=O)NCC(O)c2c(Cl)cccc2Cl)nn1C", "note": "(configuration not stated)", "values": [{"measurement": "cytotoxicity at 70.5 h", "setting": "[1]", "value": 71.4, "unit": "%"}, {"measurement": "BOTTOM", "setting": "[2]", "value": 0}, {"measurement": "HILLSLOPE", "setting": "[2]", "value": 0}, {"measurement": "TOP", "setting": "[2]", "value": 0}, {"measurement": "pXC50", "setting": "[2]", "value": "< 4.53"}]}
{"smiles": "Cc1cc(NC(=O)CN2CCn3c(nnc3C(C)C)C2)no1", "values": [{"measurement": "cytotoxicity at 70.5 h", "setting": "[1]", "value": 67.5, "unit": "%"}, {"measurement": "BOTTOM", "setting": "[2]", "value": 0}, {"measurement": "HILLSLOPE", "setting": "[2]", "value": 0}, {"measurement": "TOP", "setting": "[2]", "value": 0}, {"measurement": "pXC50", "setting": "[2]", "value": "< 4.53"}]}
{"smiles": "CC(O)CN1CCC(CNCc2c[nH]nc2C(C)(C)C)CC1", "note": "(configuration not stated)", "values": [{"measurement": "cytotoxicity at 70.5 h", "setting": "[1]", "value": 70.3, "unit": "%"}, {"measurement": "BOTTOM", "setting": "[2]", "value": 0}, {"measurement": "HILLSLOPE", "setting": "[2]", "value": 0}, {"measurement": "TOP", "setting": "[2]", "value": 0}, {"measurement": "pXC50", "setting": "[2]", "value": "< 4.53"}]}
{"smiles": "CCS(=O)(=O)N1CCc2ccc(NC(=O)Nc3ccc(F)cc3F)cc21", "values": [{"measurement": "cytotoxicity at 70.5 h", "setting": "[1]", "value": 61, "unit": "%"}, {"measurement": "BOTTOM", "setting": "[2]", "value": "-8.818 and -13.27"}, {"measurement": "HILLSLOPE", "setting": "[2]", "value": "1.034 and 0.9987"}, {"measurement": "TOP", "setting": "[2]", "value": "101.1 and 100"}, {"measurement": "pXC50", "setting": "[2]", "value": "4.643 and 4.737"}]}
{"smiles": "C/N=C1\\c2cc3cc(OC)ccc3n2CCN1Cc1ccccc1.O=C(O)C(F)(F)F", "values": [{"measurement": "cytotoxicity at 70.5 h", "setting": "[1]", "value": 68.5, "unit": "%"}, {"measurement": "BOTTOM", "setting": "[2]", "value": "-10.9 and -4.699"}, {"measurement": "HILLSLOPE", "setting": "[2]", "value": "1.421 and 1.435"}, {"measurement": "TOP", "setting": "[2]", "value": 100}, {"measurement": "pXC50", "setting": "[2]", "value": "5.16 and 5.151"}]}
{"smiles": "CCCn1ncc(-c2ccnc(NC3CC(C)(C)NC(C)(C)C3)n2)c1C", "values": [{"measurement": "cytotoxicity at 70.5 h", "setting": "[1]", "value": 80.1, "unit": "%"}, {"measurement": "BOTTOM", "setting": "[2]", "value": 0}, {"measurement": "HILLSLOPE", "setting": "[2]", "value": 0}, {"measurement": "TOP", "setting": "[2]", "value": 0}, {"measurement": "pXC50", "setting": "[2]", "value": "< 4.53"}]}
{"smiles": "CC(C)(C)c1cn2c(n1)C(CNCc1cnn3ccccc13)CCC2", "note": "(configuration not stated)", "values": [{"measurement": "cytotoxicity at 70.5 h", "setting": "[1]", "value": 71.2, "unit": "%"}, {"measurement": "BOTTOM", "setting": "[2]", "value": "-11.51 and -11.88"}, {"measurement": "HILLSLOPE", "setting": "[2]", "value": "1.1 and 1.076"}, {"measurement": "TOP", "setting": "[2]", "value": 100}, {"measurement": "pXC50", "setting": "[2]", "value": "5.268 and 5.282"}]}
